From patent US6191150A, “Formamide compounds as therapeutic agents” (Glaxo Wellcome Inc., priority 1998, dated 2001) come the findings set out here.

The target in assay [1] is T1, 19 kD truncated collagenase-1 (MMP-1) (Homo sapiens, UniProt P03956).
T1 construct: 19 kD truncated collagenase-1 (MMP-1)
T1 sequence (P03956 101-269 limits assumed): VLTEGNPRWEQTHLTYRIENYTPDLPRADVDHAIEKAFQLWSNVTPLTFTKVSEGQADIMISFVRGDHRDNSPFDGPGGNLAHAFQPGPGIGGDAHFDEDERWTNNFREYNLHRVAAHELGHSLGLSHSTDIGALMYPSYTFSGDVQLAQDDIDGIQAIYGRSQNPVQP
Put plainly: Matrix metalloprotease inhibition, fluorogenic substrate: collagenase-1. Type of assay: biochemical. Here is the method: (§1) Assays are conducted in a total volume of 0.180 mL assay buffer (200 mM NaCl, 50 mM Tris, 5 mM CaCl2, 10 μM ZnSO4, 0.005% Brij 35, pH 7.6) in each well of a black 96-well microtiter plate. 19 kD collagenase-1, 20 kD collagenase-3, stromelysin-1,and 50 kD gelatinase B concentrations are adjusted to 500 pM, 30 pM, 5 nM, and 100 pM, respectively. A dose response is generated using an eleven-point, 3-fold serial dilution with initial starting test compound concentrations of 100, 10, or 1 μM. Inhibitor and enzyme reactions are incubated for 30 minutes at ambient temperature and then initiated with 10 μM fluorogenic substrate (above). The product formation is measured at Excitation343 /Emission450 nm after 45-180 minutes using a Fluostar SLT fluorescence analyzer. Percent inhibition is calculated at each inhibitor concentration and the data are plotted using standard curve fitting programs. IC50 values are determined from these curves. Assays are run at low substrate concentration ([S]<<Km) such that the calculated IC50 values are equivalent to Ki within experimental error.

A further assay addresses stromelysin-1 (Homo sapiens, UniProt P08254). Put plainly: Matrix metalloprotease inhibition, fluorogenic substrate: stromelysin-1. The format is biochemical. How it is done: as §1
Assay [2] deals with release of soluble tumor necrosis factor α from stimulated monocytes. Put plainly: Cell-based TNFα release inhibition, LPS/PMA-stimulated MonoMac 6 cells, ELISA. The note with it: Homo sapiens, MONO-MAC-6, 37° C., 2 h. How it is done:
Compounds (10 mM) are serially diluted 1:3 in DMSO. Compound dilutions (20 μL) are added to a sterile round bottom 96 well plate (20 μL:200 μL total volume=1:10 for final concentrations of […] for test compounds). MonoMac 6 cell suspension (130 μL, 1.5×10^6 cells/mL) is then added to each well resulting in 2×10^5 cells/well. LPS/PMA (50 μL) solution is then added to each well (final concentrations of 10 ng/mL and 30 ng/mL respectively). The plate is incubated at 37° C. for 2 h then spun at 1,500 rpm for 3 min to pellet cells. The supernatant (120 μL/well) is removed to a new round bottom 96 well plate and diluted 1:10 in PBS. Then, 20 μL of the supernatant is transferred to a Cistron […] ELISA plate and processed according to the manufacturer's instructions to quantitate levels of TNFα. Percent inhibition of TNFα release is calculated at each inhibitor concentration and the data are plotted using standard curve fitting programs. IC50 values are determined from these curves.
(In general: In an ELISA, binding on a coated surface is turned into a signal by an enzyme label.)

For the next assay, the system named is serum TNFα. As to the kind of experiment: Murine LPS-stimulated serum TNF inhibition. Type of assay: in vivo, mouse (C3/hen female mice). The conditions noted are these: s.c., 40 mg/kg, 10 min prior to 200 μg/kg i.p. LPS; 90 min after LPS. Here is the method:
USA) for a final DMSO concentration of 1%. The dosing solution is sonicated briefly and 0.2 mL is injected subcutaneously 10 min prior to LPS injection, b) for per oral (p.o.) administration, test compounds are formulated in 0.2 mL of PBS and 0.1% Tween 80 and given orally via gavage 10 min prior to LPS administration.
Blood is immediately taken from the caudal vena cava and plasma prepared and frozen at -80° C. Plasma concentrations of TNF are measured by ELISA (Genzyme Co., Cambridge Mass.).

The next assay has as its target T2, TNFα Converting Enzyme (Homo sapiens, UniProt P78536).
T2 construct: Membrane preparation from MonoMac 6 cells; endogenous in cells; host or cells: MonoMac 6 cells, subfractionated membrane preparation
Put plainly: TNFα converting enzyme inhibition, MonoMac 6 membrane preparation, radiolabeled substrate SPA. On TNFα Converting Enzyme Ki: 200 nM substrate. The format is biochemical. Here is the method: The reaction is quenched by addition of streptavidin SPA beads (Amersham RPNQ0006), with excess binding capacity relative to substrate, suspended in 250 mM EDTA, pH 8.0. Binding is complete within 15 minutes and plates are counted in a Wallac 1450 Microbeta liquid scintillation counter. Percent inhibition is calculated at each inhibitor concentration and the data are plotted using standard curve fitting programs. IC50 values are determined from these curves. Assays are run at low substrate concentration ([S]<<Km) such that the calculated IC50 values are equivalent to Ki within experimental error.

[3] abbreviates: read-out: TNFα Converting Enzyme Ki.

The Ki is the equilibrium dissociation constant of an inhibitor or competing ligand from its target. One may read the IC50 as the concentration at which inhibition is half-maximal. A low value points to greater potency in that assay.

SMILES strings stand for the structures. Like-named read-outs stand apart in the source and are kept apart here. Where only a bound is given, the exact number is not on record here.

T2 sequence (P78536 215-824): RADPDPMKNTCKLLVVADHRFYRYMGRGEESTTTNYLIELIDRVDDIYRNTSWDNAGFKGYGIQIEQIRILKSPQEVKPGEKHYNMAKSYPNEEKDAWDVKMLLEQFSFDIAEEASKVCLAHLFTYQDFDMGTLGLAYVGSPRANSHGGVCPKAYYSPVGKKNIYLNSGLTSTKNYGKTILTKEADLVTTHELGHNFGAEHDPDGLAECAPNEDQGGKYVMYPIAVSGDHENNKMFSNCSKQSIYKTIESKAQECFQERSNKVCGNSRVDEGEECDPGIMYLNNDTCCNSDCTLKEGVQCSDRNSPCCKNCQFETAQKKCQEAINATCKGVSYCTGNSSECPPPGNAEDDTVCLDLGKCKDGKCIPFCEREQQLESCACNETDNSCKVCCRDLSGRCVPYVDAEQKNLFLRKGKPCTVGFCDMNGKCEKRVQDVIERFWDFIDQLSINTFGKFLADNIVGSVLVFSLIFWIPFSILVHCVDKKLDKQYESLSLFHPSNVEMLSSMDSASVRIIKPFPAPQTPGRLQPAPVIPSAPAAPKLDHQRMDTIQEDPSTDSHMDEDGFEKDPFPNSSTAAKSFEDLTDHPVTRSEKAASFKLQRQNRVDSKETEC
stromelysin-1, sequence (P08254 100-477): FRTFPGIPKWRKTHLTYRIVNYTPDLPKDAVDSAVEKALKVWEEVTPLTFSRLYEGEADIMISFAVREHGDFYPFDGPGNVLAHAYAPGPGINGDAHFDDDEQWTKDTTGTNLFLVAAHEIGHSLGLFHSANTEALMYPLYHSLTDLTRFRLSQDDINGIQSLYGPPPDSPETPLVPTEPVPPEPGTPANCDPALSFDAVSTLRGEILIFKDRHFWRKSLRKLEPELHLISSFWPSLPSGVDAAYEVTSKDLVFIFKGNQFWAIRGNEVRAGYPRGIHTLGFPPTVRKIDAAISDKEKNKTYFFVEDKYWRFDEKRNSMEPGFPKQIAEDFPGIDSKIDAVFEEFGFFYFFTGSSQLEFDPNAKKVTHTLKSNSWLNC

Turning to `CCC[C@@H]([C@@H](CC(C)C)C(=O)N[C@@H](CCCNC(N)=N[N+](=O)[O-])C(=O)Nc1nccs1)N(O)C=O` [Example 1, (2R,3S)-3-(Formyl-hydroxyamino)-2-(2-methyl-1-propyl)hexanoic Acid [(1S)-4-(nitroimino-amino)methylamino-1-(1,3-thiazol-2-ylcarbamoyl)-1-butyl]amide], the inhibition constant Ki (in assay [1]; on stromelysin-1) was below 0.05 µM in each case. The compound also displayed an IC50 in assay [2] below 0.05 µM. Further, the “Percentage Inhibition of Serum TNFα” value with serum TNFα is recorded as “+++ (>75%)”.
Take `CCC[C@@H]([C@@H](CC1CCCCC1)C(=O)N[C@@H](CCCNC(N)=N[N+](=O)[O-])C(=O)Nc1nccs1)N(O)C=O` [Example 2, (2R,3S)-3-(Formyl-hydroxyamino)-2-(cyclohexylmethyl)hexanoic Acid [(1S)-4-(nitroimino-amino)methylamino-1-(1,3-thiazol-2-ylcarbamoyl)-1-butyl]amide]: the Ki was below 0.05 µM on TNFα Converting Enzyme (setting [3]), 0.05 to 0.25 µM in assay [1] and 0.05 to 0.25 µM on stromelysin-1. In assay [2], this compound registered a half-maximal inhibitory concentration (IC50) below 0.05 µM. The “Percentage Inhibition of Serum TNFα” value in the assay with serum TNFα is recorded as “++ (50%-75%)”.
Consider `CC(C)C[C@@H](C(=O)N[C@H](C(=O)Nc1nccs1)[C@H](C)CCNC(N)=N[N+](=O)[O-])[C@H](C)N(O)C=O` [Example 3, (2R,3S)-3-(Formyl-hydroxyamino)-2-(2-methyl-1-propyl)butanoic Acid [(1S,2R)-2-Methyl-4-(nitroimino-amino)methylamino-1-(1,3-thiazol-2-ylcarbamoyl)-1-butyl]amide], for which the figures for the Ki (on TNFα Converting Enzyme (setting [3]); in assay [1]; at stromelysin-1) were below 0.05 µM, below 0.05 µM and 0.05 to 0.25 µM, respectively. The compound further had an IC50 in assay [2] below 0.05 µM.
For the compound `CCC[C@@H]([C@@H](CC(C)C)C(=O)N[C@H](C(=O)Nc1nccs1)[C@H](C)CCNC(N)=N[N+](=O)[O-])N(O)C=O` [Example 4, (2R,3S)-3-(Formyl-hydroxyamino)-2-(2-methyl-1-propyl)hexanoic Acid [(1S,2R)-2-Methyl-4-(nitroimino-amino)methylamino-1-(1,3-thiazol-2-ylcarbamoyl)-1-butyl]amide], the figures for the inhibition constant (Ki) (on TNFα Converting Enzyme (setting [3]); in assay [1]; at stromelysin-1) were below 0.05 µM, below 0.05 µM and 0.05 to 0.25 µM, respectively. This compound also had an IC50 in assay [2] below 0.05 µM.
As to `CC(C)C[C@@H](C(=O)N[C@@H](CCCNC(N)=N[N+](=O)[O-])C(=O)Nc1nccs1)[C@H](Cc1ccccc1)N(O)C=O` [Example 5], the inhibition constant (Ki) (in assay [1]; on stromelysin-1) was below 0.05 µM in each case. Besides, the concentration for half-maximal inhibition (IC50) in assay [2] fell in the range of 0.25 to 0.5 µM.
Regarding `NC(=N[N+](=O)[O-])NCCC[C@H](NC(=O)[C@H](CC1CCCCC1)[C@H](CCC(F)(F)F)N(O)C=O)C(=O)Nc1nccs1` [Example 6, (2R,3S)-3-(Formyl-hydroxyamino)-2-(cyclohexylmethyl)-6,6,6-trifluorohexanoic Acid [(1S)-4-(nitroimino-amino)methylamino-1-(1,3-thiazol-2-ylcarbamoyl)-1-butyl]amide], the inhibition constant Ki on TNFα Converting Enzyme (setting [3]) was below 0.05 µM; in assay [1], 0.05 to 0.25 µM; on stromelysin-1, 0.05 to 0.25 µM. The same compound gave a 50% inhibitory concentration (IC50) in assay [2] of 0.05 to 0.25 µM. Also, the “Percentage Inhibition of Serum TNFα” value in the assay on serum TNFα is reported as “++ (50%-75%)”.
Turning to `CCC[C@@H]([C@@H](CC1CCC(C)CC1)C(=O)N[C@@H](CCCNC(N)=N[N+](=O)[O-])C(=O)Nc1nccs1)N(O)C=O` (stereo partly drawn) [Example 7, (2R,3S)-3-(Formyl-hydroxyamino)-2-(4-methylcyclohexyl-methyl)hexanoic Acid [(1S)-4-(nitroimino-amino)methyl-amino-1-(1,3-thiazol-2-ylcarbamoyl)-1-butyl]amide], the inhibition constant Ki on TNFα Converting Enzyme (setting [3]) was below 0.05 µM; in assay [1], 0.05 to 0.25 µM; on stromelysin-1 it was 0.05 to 0.25 µM. The IC50 in assay [2] lay in the range of 0.05 to 0.25 µM. Further, the “Percentage Inhibition of Serum TNFα” value in the assay with serum TNFα is recorded as “++ (50%-75%)”.
Turning to `CC1CCC(C[C@@H](C(=O)N[C@@H](CCCNC(N)=N[N+](=O)[O-])C(=O)Nc2nccs2)[C@H](C(C)C)N(O)C=O)CC1` (stereo partly drawn) [Example 8, (2R,3S)-3-(Formyl-hydroxyamino)-2-(4-methylcyclohexyl-methyl)-4-methylpentanoic Acid [(1S)-4-(nitroimino-amino)methylamino-1-(1,3-thiazol-2-ylcarbamoyl)-1-butyl]amide], the inhibitory constant (Ki) (in assay [1]; at stromelysin-1) was 0.05 to 0.25 µM each time. The compound further gave an IC50 in assay [2] below 0.05 µM. In addition, in the assay with serum TNFα, the “Percentage Inhibition of Serum TNFα” value was “++ (50%-75%)”.
`CCC[C@@H]([C@@H](Cc1ccc(C)s1)C(=O)N[C@@H](CCCNC(N)=N[N+](=O)[O-])C(=O)Nc1nccs1)N(O)C=O` [Example 9, (2R,3S)-3-(Formyl-hydroxyamino)-2-(5-methyl-2-thio-phenemethyl)hexanoic Acid [(1S)-4-((nitroimino-amino)methylamino)-1-(1,3-thiazol-2-ylcarbamoyl)-1-butyl]amide]: the Ki is above 1 µM in assay [1] and 0.05 to 0.25 µM at stromelysin-1. In assay [2], the IC50 lay within 0.05 to 0.25 µM.
As to `NC(=N[N+](=O)[O-])NCCC[C@H](NC(=O)[C@H](CC1CCCCC1)[C@H](C1CC1)N(O)C=O)C(=O)Nc1nccs1` [Example 10, (2R,3S)-3-(Formyl-hydroxyamino)-2-(cyclohexylmethyl)-3-cyclopropylpropanoic Acid [(1S)-4-(nitroimino-amino)methylamino-1-(1,3-thiazol-2-ylcarbamoyl)-1-butyl]amide], the inhibition constant Ki at TNFα Converting Enzyme is below 0.05 µM; in assay [1] it was 0.05 to 0.25 µM; on stromelysin-1, above 1 µM. This compound registered a half-maximal inhibitory concentration (IC50) in assay [2] of 0.25 to 0.5 µM. Besides, the “Percentage Inhibition of Serum TNFα” value in the assay on serum TNFα is given as “++ (50%-75%)”.
